Measurements taken from patent US8476255B2, “Histone deacetylase inhibitors” (Orchid Chemicals & Pharmaceuticals Limited, priority 2007, dated 2013).

Key:
NCIH460 (lung) cells = experiment: Anti-cancer screen (MTT), NCIH460; format: cell-based; settings: Homo sapiens, NCI-H460, NCIH460, 48 hours, MTT; for GI50: read-out: Cell growth inhibition NCIH460 (Lung) GI50; for LC50: read-out: Cell growth inhibition NCIH460 (Lung) LC50; for IC (TGI): read-out: Cell growth inhibition NCIH460 (Lung) TGI
Protocol: (§1) Experimental drugs were screened for anti-cancer activity in three cell lines using five concentrations for each compound. The cell lines —HCT 116 (colon), NCIH460 (lung) and U251 (glioma) were maintained in DMEM containing 10% fetal bovine serum. 96-well microtiter plates are inoculated with cells in 100 μL of cell suspension (5×10^4 cells/mL) for 24 hours at 37° C., 5% CO2, 95% air and 100% relative humidity. A separate plate with these cell lines is also inoculated to determine cell viability before the addition of the compounds (T0).
(§2) Following 24-hours incubation, test compounds were added to the 96 well plates. Each plate contains one of the above cell lines and the following samples in triplicate: five different dilutions (0.01, 0.1, 1, 10 and 100 μM) of four test compounds, appropriate dilutions of a cytotoxic standard and growth medium (untreated) wells. Test compounds were dissolved in DMSO to prepare 20 mM stock solutions on the day of drug addition and serial dilutions were carried out in complete growth medium at 2× strength such that 100 μL added to wells gave final concentrations (0.01, 0.1, 1, 10 and 100 μM) in the well. SAHA was used as standard drug in these experiments.
(§3) For T0 measurement, 24 hours after seeding the cells, 20 μL of 3-(4,5-dimethyl-2-thiazolyl)-2,5-diphenyl-2H-tetrazolium (MTT) solution per well was added to the ‘T0’ plate and incubated for 3 hours at 37° C. in a CO2 incubator. The plate containing cells and test compounds was treated similarly after 48 hours of incubation. After 3 hours of MTT addition, well contents were aspirated carefully followed by addition of 150 μL DMSO per well. Plates were agitated to ensure dissolution of the formazan crystals in DMSO and absorbance was read at 570 nm (A570).
(§4) (Mosmann T. Rapid colorimetric assay for cellular growth and survival: application to proliferation and cytotoxicity assays. J Immunol Methods 1983; 65(1-2): 55-63; Anne Monks et al. Feasibility of high-flux anticancer drug screen using a diverse panel of cultured human tumor cell lines”. JNCI, Vol. 83, No. 11, 1991).

HCT 116 (colon) cells = experiment: Anti-cancer screen (MTT), HCT 116; format: cell-based; settings: Homo sapiens, HCT-116, HCT116, 48 hours, MTT; for GI50: read-out: Cell growth inhibition HCT116 (Colon) GI50; for CC50: read-out: Cell growth inhibition HCT116 (Colon) LC50; for IC (TGI): read-out: Cell growth inhibition HCT116 (Colon) TGI
Protocol: as §1, §2, §3, §4

U251 (glioma) cells = experiment: Anti-cancer screen (MTT), U251; format: cell-based; settings: Homo sapiens, U-251, U251, 48 hours, MTT; for GI50: read-out: Cell growth inhibition U251 (Glioma) GI50; for LC50 (concentration giving 50% net cell kill relative to the time-zero cell count): read-out: Cell growth inhibition U251 (Glioma) LC50; for IC (TGI): read-out: Cell growth inhibition U251 (Glioma) TGI
Protocol: as §1, §2, §3, §4

[1] = test system: NCIH460, HCT116 and U251 cells; experiment: Anti-cancer screen, mean GI50 over cell lines; format: cell-based; settings: mean over cell lines; read-out: Cell growth inhibition Mean GI50
Protocol: as §1, §2, §3, §4

[2] = test system: HDAC (Mouse Liver Extract); experiment: HDAC inhibition assay using Boc-Lys(Ac)-AMC substrate; format: biochemical; settings: mouse liver enzyme
Protocol: Inhibition of HDAC has been implicated to modulate transcription and to induce apoptosis or differentiation in cancer cells. The fluorometric assay provides a fast and fluorescence based method that eliminates radioactivity, extractions or chromatography, as used in traditional assays. The assay is based on two steps. First, the HDAC fluorometric substrate, which comprises an acetylated lysine side chain, is incubated with a sample containing HDAC activity (Mouse Liver Extract). Deacetylation of the substrate sensitizes the substrate, in the second step; treatment with the Trypsin stop solution produces a fluorophore that can be easily analyzed using fluorescence plate reader. Assay was done in 96-well black microplate and total volume of the assay was […]. […] The plate was pre-incubated at 37° C. for 5 minutes. […] The plate was incubated at 37° C. for 30 min. The reaction was stopped by adding 100 μL, of Trypsin stop solution and incubating at 37° C. for 15-30 min. Measuring the fluorescence at excitation wavelength of 360 nm and emission wavelength of 460 nm monitored the release of AMC. Buffer alone and substrate alone served as blank. […] (Dennis Wegener et al, Anal. Biochem, 321, 2003, 202-208).

Compound	GI50 (NCIH460 (lung) cells) [µM]	LC50 (NCIH460 (lung) cells) [µM]	IC (TGI) (NCIH460 (lung) cells) [µM]	GI50 (HCT 116 (colon) cells) [µM]	CC50 (HCT 116 (colon) cells) [µM]	IC (TGI) (HCT 116 (colon) cells) [µM]	GI50 (U251 (glioma) cells) [µM]	LC50 (concentration giving 50% net cell kill relative to the time-zero cell count) (U251 (glioma) cells) [µM]	IC (TGI) (U251 (glioma) cells) [µM]	GI50 [1] [µM]	HDAC inhibition % (1 μM) [2] [%]	HDAC inhibition % (10 μM) [2] [%]
Nc1ccccc1NC(=O)c1ccc(CNC(=O)/C(=C/c2ccccc2)c2ccccc2)cc1 [Compound 12, N-(2-Aminophenyl)-4-((3-phenyl-2-phenylacrylamido)methyl)benzamide]	32	87	60	5.2	76.2	37	18	82	48.5	18.4	13.6	29.8
Nc1ccccc1NC(=O)c1ccc(CNC(=O)/C(=C/c2c(F)cc(F)cc2F)c2ccc(F)cc2)cc1 [Compound 13, N-(2-Aminophenyl)-4-((3-(2,4,6-trifluorophenyl)-2-(4-fluorophenyl)acrylamido)methyl)benzamide]	34	93	66	8.9	90	50	3.4	48	8	15.4	9.4	18.2
CSc1ccc(/C=C(/C(=O)NCc2ccc(C(=O)Nc3ccccc3N)cc2)c2cccs2)cc1 [Compound 18, N-(2-Aminophenyl)-4-((3-(4-methylthiophenyl)-2-(thiophen-2-yl)acrylamido)methyl)benzamide]	4.1	> 100	20	5	> 100	20	2.2	7	4	3.8	28.7	36.7
COc1cc(/C=C(/C(=O)NCc2ccc(C(=O)Nc3ccccc3N)cc2)c2ccc(F)cc2)ccc1F [Compound 20, N-(2-Aminophenyl)-4-((3-(4-fluoro-3-methoxyphenyl)-2-(4-fluorophenyl)acrylamido)methyl)benzamide]	7.5		18	0.3	80	20	1.7		3.5	3.2	45.1	46.2
CSc1ccc(/C=C(/C(=O)NCc2ccc(C(=O)Nc3ccccc3N)cc2)c2ccc(C(F)(F)F)cc2)cc1 [Compound 21, N-(2-Aminophenyl)-4-((3-(4-methylthiophenyl)-2-(4-trifluoromethylphenyl)acrylamido)methyl)benzamide]	32	78	46	35	82	56	52	96	65	39.7	7.0	24.8
